Experimental findings from patent US9326516B2, “Molecules having certain pesticidal utilities, and intermediates, compositions, and processes related thereto” (Dow AgroSciences LLC, priority 2014, dated 2016) are described below.

Holding throughout (assay type): in vivo
Assay [1] deals with Beet Armyworm (Spodoptera exigua, LAPHEG). The assay is described as follows: Bioassay on Beet Armyworm (BAW), 128-well diet tray assay. To be noted: 168 h, 50 μg/cm^2 on artificial diet, second instar BAW larvae, 25° C., five to seven days, average of eight wells, read-out: BAW % Control (or Mortality) rating. The procedure: (§1) Certain molecules disclosed in this document were tested against BAW and CEW using procedures described in the following examples. In the reporting of the results, the “BAW & CL Rating Table” was used (See Table Section).
Bioassays on BAW were conducted using a 128-well diet tray assay. one to five second instar BAW larvae were placed in each well (3 mL) of the diet tray that had been previously filled with 1 mL of artificial diet to which 50 μg/cm^2 of the test compound (dissolved in 50 μL of 90:10 acetone-water mixture) had been applied (to each of eight wells) and then allowed to dry. Trays were covered with a clear self-adhesive cover and held at 25° C., 14:10 light-dark for five to seven days. Percent mortality was recorded for the larvae in each well; activity in the eight wells was then averaged. The results are indicated in the table entitled “Table ABC: Biological Results” (See Table Section).

For assay [2], the system named is Green Peach Aphid (Myzus persicae, MYZUPE). As to the kind of experiment: Bioassay on Green Peach Aphid (GPA), foliar spray on cabbage seedlings. To be noted: 72 h, 200 ppm spray on infested cabbage seedlings, graded after three days, Abbott corrected % control, read-out: GPA % Control (or Mortality) rating. The procedure: Certain molecules disclosed in this document were tested against GPA using procedures described in the following example. In the reporting of the results, the “GPA Rating Table” was used (See Table Section).
Cabbage seedlings grown in 3-inch pots, with 2-3 small (3-5 cm) true leaves, were used as test substrate. The seedlings were infested with 20-50 GPA (wingless adult and nymph stages) one day prior to chemical application. Four pots with individual seedlings were used for each treatment. Test compounds (2 mg) were dissolved in 2 mL of acetone/methanol (1:1) solvent, forming stock solutions of 1000 ppm test compound. The stock solutions were diluted 5× with 0.025% Tween 20 in water to obtain the solution at 200 ppm test compound. A hand-held aspirator-type sprayer was used for spraying a solution to both sides of […] leaves until runoff. Reference plants (solvent check) were sprayed with the diluent only containing 20% by volume of acetone/methanol (1:1) solvent. Treated plants were held in a holding room for three days at approximately 25° C. and ambient relative humidity (RH) prior to grading. Evaluation was conducted by counting the number of live aphids per plant under a microscope. Percent Control was measured by using Abbott's correction formula (W. S. Abbott, “A Method of Computing the Effectiveness of an Insecticide” J. Econ. Entomol. 18 (1925), pp. 265-267) as follows. Corrected % Control=100*(X−Y)/X where X=No. of live aphids on solvent check plants and Y=No. of live aphids on treated plants

For assay [3], the system named is Cabbage Looper (Trichoplusia ni, TRIPNI). The assay is described as follows: Bioassay on Cabbage Looper (CL), 128-well diet tray assay. To be noted: 168 h, 50 μg/cm^2 on artificial diet, second instar CL larvae, 25° C., five to seven days, average of eight wells, read-out: CL % Control (or Mortality) rating. The procedure:
as §1
Bioassays on CL were conducted using a 128-well diet tray assay, one to five second instar CL larvae were placed in each well (3 mL) of the diet tray that had been previously filled with 1 mL of artificial diet to which 50 μg/cm^2 of the test compound (dissolved in 50 μL of 90:10 acetone-water mixture) had been applied (to each of eight wells) and then allowed to dry. Trays were covered with a clear self-adhesive cover and held at 25° C., 14:10 light-dark for five to seven days. Percent mortality was recorded for the larvae in each well; activity in the eight wells was then averaged. The results are indicated in the table entitled “Table ABC: Biological Results” (See Table Section).

For the compound `Fc1ccc(C2CSC(Nc3ccc(-c4ncn(-c5ccc(OC(F)(F)F)cc5)n4)cc3)=N2)cc1` (stereo not drawn) [Compound F24, 4-(4-Fluorophenyl)-N-(4-(1-(4-(trifluoromethoxy)phenyl)-1H-1,2,4-triazol-3-yl)phenyl)-4,5-dihydrothiazol-2-amine], the mortality at 50 µg/cm2 in assay [1] and in assay [3] was 0 to 50% throughout. In assay [2], the mortality at 200 ppm came to 0%.
For `FC(F)(F)Oc1ccc(-n2cnc(-c3ccc(NC4=NC(c5ccc(Cl)cc5)CS4)cc3)n2)cc1` (stereo not drawn) [Compound F25, 4-(4-Chlorophenyl)-N-(4-(1-(4-(trifluoromethoxy)phenyl)-1H-1,2,4-triazol-3-yl)phenyl)-4,5-dihydrothiazol-2-amine], the mortality at 50 µg/cm2 in assay [1] and in assay [3] was 0% each time. Moreover, the mortality at 200 ppm in assay [2] was determined as 0%.
Take `FC(F)(F)Oc1ccc(-n2cnc(-c3ccc(NC4=NC(c5ccc(Br)cc5)CS4)cc3)n2)cc1` (stereo not drawn) [Compound F26, 4-(4-Bromophenyl)-N-(4-(1-(4-(trifluoromethoxy)phenyl)-1H-1,2,4-triazol-3-yl)phenyl)-4,5-dihydrothiazol-2-amine]: the mortality at 50 µg/cm2 in assay [1] is 0%; in assay [3], 0 to 50%. In addition, in assay [2], the mortality at 200 ppm came out at 0%.
Regarding `FC(F)(F)Oc1ccc(-n2cnc(-c3ccc(NC4=NC(c5ccc(C(F)(F)F)cc5)CS4)cc3)n2)cc1` (stereo not drawn) [Compound F27, N-(4-(1-(4-(Trifluoromethoxy)phenyl)-1H-1,2,4-triazol-3-yl)phenyl)-4-(4-(trifluoromethyl)phenyl)-4,5-dihydrothiazol-2-amine], the results for the mortality at 50 µg/cm2 in assay [1] and in assay [3] were 0% and 50 to 100%, respectively. In assay [2], the mortality at 200 ppm was 0%.
Take `FC(F)(F)Oc1ccc(C2CSC(Nc3ccc(-c4ncn(-c5ccc(OC(F)(F)F)cc5)n4)cc3)=N2)cc1` (stereo not drawn) [Compound F28, 4-(4-(Trifluoromethoxy)phenyl)-N-(4-(1-(4-(trifluoromethoxy)phenyl)-1H-1,2,4-triazol-3-yl)phenyl)-4,5-dihydrothiazol-2-amine]: the mortality at 50 µg/cm2 is 0 to 50% in assay [1] and 0% in assay [3]. In addition, in assay [2], the mortality at 200 ppm turned out to be 0%.
On to `FC(F)(F)Oc1ccc(-n2cnc(-c3ccc(NC4=NC(c5cccc(Cl)c5)CS4)cc3)n2)cc1` (stereo not drawn) [Compound F29, 4-(3-Chlorophenyl)-N-(4-(1-(4-(trifluoromethoxy)phenyl)-1H-1,2,4-triazol-3-yl)phenyl)-4,5-dihydrothiazol-2-amine], for which the mortality at 50 µg/cm2 in assay [1] and in assay [3] was 50 to 100% throughout. The mortality at 200 ppm in assay [2] came out at 0%.
`FC(F)(F)Oc1ccc(-n2cnc(-c3ccc(NC4=NC(c5ccccc5Cl)CS4)cc3)n2)cc1` (stereo not drawn) [Compound F30, 4-(2-Chlorophenyl)-N-(4-(1-(4-(trifluoromethoxy)phenyl)-1H-1,2,4-triazol-3-yl)phenyl)-4,5-dihydrothiazol-2-amine]: the mortality at 50 µg/cm2 in assay [1] and in assay [3] was 50 to 100% throughout. For the same compound, in assay [2], the mortality at 200 ppm was found to be 0%.
As to `Cc1cc(C2CSC(Nc3ccc(-c4ncn(-c5ccc(OC(F)(F)F)cc5)n4)cc3)=N2)ccc1Cl` (stereo not drawn) [Compound F31, 4-(4-Chloro-3-methylphenyl)-N-(4-(1-(4-(trifluoromethoxy)phenyl)-1H-1,2,4-triazol-3-yl)phenyl)-4,5-dihydrothiazol-2-amine], the mortality at 50 µg/cm2 in assay [1] and in assay [3] was 50 to 100% throughout. The mortality at 200 ppm in assay [2] was 0%.
Turning to `COc1ccc(C2CSC(Nc3ccc(-c4ncn(-c5ccc(C(F)(F)F)cc5)n4)cc3)=N2)cc1` (stereo not drawn) [Compound F32, 4-(4-Methoxyphenyl)-N-(4-(1-(4-(trifluoromethyl)phenyl)-1H-1,2,4-triazol-3-yl)phenyl)-4,5-dihydrothiazol-2-amine], the mortality at 50 µg/cm2 in assay [1] and in assay [3] was 0% in each case. Further, the mortality at 200 ppm in assay [2] was determined as 0%.
In the case of `Cc1ccc(C2CSC(Nc3ccc(-c4ncn(-c5ccc(C(F)(F)F)cc5)n4)cc3)=N2)cc1` (stereo not drawn) [Compound F33, 4-(p-Tolyl)-N-(4-(1-(4-(trifluoromethyl)phenyl)-1H-1,2,4-triazol-3-yl)phenyl)-4,5-dihydrothiazol-2-amine], the mortality at 50 µg/cm2 in assay [1] and in assay [3] was 0% throughout. Besides, the mortality at 200 ppm in assay [2] lay within 0 to 80%.
For the compound `FC(F)(F)c1ccc(-n2cnc(-c3ccc(NC4=NC(c5ccccc5)CS4)cc3)n2)cc1` (stereo not drawn) [Compound F34, 4-Phenyl-N-(4-(1-(4-(trifluoromethyl)phenyl)-1H-1,2,4-triazol-3-yl)phenyl)-4,5-dihydrothiazol-2-amine], the mortality at 50 µg/cm2 in assay [1] and in assay [3] was 50 to 100% each time. In assay [2], the mortality at 200 ppm worked out at 0%.
Take `Fc1ccc(C2CSC(Nc3ccc(-c4ncn(-c5ccc(C(F)(F)F)cc5)n4)cc3)=N2)cc1` (stereo not drawn) [Compound F35, 4-(4-Fluorophenyl)-N-(4-(1-(4-(trifluoromethyl)phenyl)-1H-1,2,4-triazol-3-yl)phenyl)-4,5-dihydrothiazol-2-amine]: the mortality at 50 µg/cm2 in assay [1] was 0%; in assay [3], 50 to 100%. Besides, in assay [2], the mortality at 200 ppm is 0%.
For the compound `FC(F)(F)c1ccc(-n2cnc(-c3ccc(NC4=NC(c5ccc(Cl)cc5)CS4)cc3)n2)cc1` (stereo not drawn) [Compound F36, 4-(4-Chlorophenyl)-N-(4-(1-(4-(trifluoromethyl)phenyl)-1H-1,2,4-triazol-3-yl)phenyl)-4,5-dihydrothiazol-2-amine], the mortality at 50 µg/cm2 is 0% in assay [1] and 50 to 100% in assay [3]. The mortality at 200 ppm in assay [2] was 0%.
As for `FC(F)(F)c1ccc(-n2cnc(-c3ccc(NC4=NC(c5ccc(Br)cc5)CS4)cc3)n2)cc1` (stereo not drawn) [Compound F37], the mortality at 50 µg/cm2 in assay [1] and in assay [3] was 0% throughout. Besides, the mortality at 200 ppm in assay [2] worked out at 0%.
On to `FC(F)(F)c1ccc(C2CSC(Nc3ccc(-c4ncn(-c5ccc(C(F)(F)F)cc5)n4)cc3)=N2)cc1` (stereo not drawn) [Compound F38, 4-(4-(Trifluoromethyl)phenyl)-N-(4-(1-(4-(trifluoromethyl)phenyl)-1H-1,2,4-triazol-3-yl)phenyl)-4,5-dihydrothiazol-2-amine], for which the mortality at 50 µg/cm2 in assay [1] fell in the range of 0 to 50%; in assay [3] it was 50 to 100%. In assay [2], the mortality at 200 ppm was 0%.
In the same order, the values of `FC(F)(F)Oc1ccc(C2CSC(Nc3ccc(-c4ncn(-c5ccc(C(F)(F)F)cc5)n4)cc3)=N2)cc1` (stereo not drawn) [Compound F39, 4-(4-(Trifluoromethoxy)phenyl)-N-(4-(1-(4-(trifluoromethyl)phenyl)-1H-1,2,4-triazol-3-yl)phenyl)-4,5-dihydrothiazol-2-amine] are 0%, 0% and 0%.
As for `FC(F)(F)c1ccc(-n2cnc(-c3ccc(NC4=NC(c5cccc(Cl)c5)CS4)cc3)n2)cc1` (stereo not drawn) [Compound F40, 4-(3-Chlorophenyl)-N-(4-(1-(4-(trifluoromethyl)phenyl)-1H-1,2,4-triazol-3-yl)phenyl)-4,5-dihydrothiazol-2-amine], the mortality at 50 µg/cm2 in assay [1] and in assay [3] was 50 to 100% each time. For the same compound, the mortality at 200 ppm in assay [2] lay within 0 to 80%.
Turning to `FC(F)(F)c1ccc(-n2cnc(-c3ccc(NC4=NC(c5ccccc5Cl)CS4)cc3)n2)cc1` (stereo not drawn) [Compound F41, 4-(2-Chlorophenyl)-N-(4-(1-(4-(trifluoromethyl)phenyl)-1H-1,2,4-triazol-3-yl)phenyl)-4,5-dihydrothiazol-2-amine], the mortality at 50 µg/cm2 in assay [1] and in assay [3] was 50 to 100% in each case. Moreover, the mortality at 200 ppm in assay [2] stood at 0%.
